Columns and labels:
HCT116 WT cells = test: HCT116 WT cell proliferation / viability (CellTiter-Glo, 6 days); type: cell-based; conditions: Homo sapiens, HCT-116, 144 h, HCT116 WT cells, 6 days, CellTiter-Glo; read-out: HCT-116 WT IC50
How it was run: (§1)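 IC50 values derive from sigmoidal dose-response fits, some with Hill slope fixed at −1 and top constrained to 100%, others from 4-parameter logistic models. They reflect CellTiter-Glo viability after 6 days of compound exposure at up to 10 or 50 μM.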

HCT116 MTAP null cells = test: HCT116 MTAP null cell proliferation / viability (CellTiter-Glo, 6 days); type: cell-based; conditions: HCT116-MTAP null, 144 h, HCT116 MTAP null cells, 6 days, CellTiter-Glo; read-out: HCT-116 MTAP null IC50
How it was run: as §1

IC50 (HCT116 WT cells)	IC50 (HCT116 MTAP null cells)	Structure (SMILES)
4890 nM	127 nM	C[C@H](c1ccc(C(F)(F)F)cn1)N(C(=O)c1ccc2nc(N)c3c(c2c1)COC3)C1CC1 [Example 736, 4-amino-N-cyclopropyl-N-((1R)-1-(5-(trifluoromethyl)-2-pyridinyl)ethyl)-1,3-dihydrofuro[3,4-c]quinoline-8-carboxamide]
430 nM	13 nM	CCN(C(=O)c1cc2c3c(c(N)nc2cc1Cl)COC3)[C@H](C)c1ccc(C(F)(F)F)cn1 [Example 738, 4-amino-7-chloro-N-ethyl-N-((1R)-1-(5-(trifluoromethyl)-2-pyridinyl)ethyl)-1,3-dihydrofuro[3,4-c]quinoline-8-carboxamide]
100 nM	5 nM	Cn1cc(N(Cc2ccc(C(F)(F)F)cn2)C(=O)c2cc3c(cc2F)nc(N)c2cnn(C)c23)cn1 [Example 740, 4-amino-7-fluoro-1-methyl-N-(1-methyl-1H-pyrazol-4-yl)-N-((5-(trifluoromethyl)-2-pyridinyl)methyl)-1H-pyrazolo[4,3-c]quinoline-8-carboxamide]
1020 nM	42 nM	Nc1nc2cc(Cl)c(C(=O)N(Cc3ccc(C(F)(F)F)nn3)CC3CC3)cc2c2c1COC2 [Example 741, 4-amino-7-chloro-N-(cyclopropylmethyl)-N-((6-(trifluoromethyl)-3-pyridazinyl)methyl)-1,3-dihydrofuro[3,4-c]quinoline-8-carboxamide]
2500 nM	66 nM	CCN(C(=O)c1ccc2nc(N)c3c(c2c1)COC3)[C@H](C)c1ccc(C(F)(F)F)cc1F [Example 742, 4-amino-N-ethyl-N-((1R)-1-(2-fluoro-4-(trifluoromethyl)phenyl)ethyl)-1,3-dihydrofuro[3,4-c]quinoline-8-carboxamide]
1090 nM	15 nM	CCN(C(=O)c1ccc2nc(N)c3c(c2c1)COC3)[C@H](C)c1ccc(C(F)(F)F)cc1 [Example 743, 4-amino-N-ethyl-N-((1R)-1-(4-(trifluoromethyl)phenyl)ethyl)-1,3-dihydrofuro[3,4-c]quinoline-8-carboxamide]
967 nM	38 nM	C[C@H](c1ccc(C(F)(F)F)nn1)N(C(=O)c1cc2c3c(c(N)nc2cc1Cl)COC3)C1CCC1 [Example 744, 4-amino-7-chloro-N-cyclobutyl-N-((1R)-1-(6-(trifluoromethyl)-3-pyridazinyl)ethyl)-1,3-dihydrofuro[3,4-c]quinoline-8-carboxamide]
14800 nM	246 nM	C[C@H](c1ccc(C(F)(F)F)nn1)N(C(=O)c1ccc2nc(N)c3c(c2c1)COC3)C1CCC1 [Example 745, 4-amino-N-cyclobutyl-N-((1R)-1-(6-(trifluoromethyl)-3-pyridazinyl)ethyl)-1,3-dihydrofuro[3,4-c]quinoline-8-carboxamide]
3460 nM	34 nM	C[C@H](c1ccc(C(F)(F)F)cn1)N(C(=O)c1ccc2nc(N)c3c(c2c1)CO[C@@H]3C)C1CC1 [Example 746, (3R)-4-amino-N-cyclopropyl-3-methyl-N-((1R)-1-(5-(trifluoromethyl)-2-pyridinyl)ethyl)-1,3-dihydrofuro[3,4-c]quinoline-8-carboxamide]
5090 nM	161 nM	CCOc1ccc(CN(CC)C(=O)c2cc3c4c(c(N)nc3cc2F)COC4)nn1 [Example 747, 4-amino-N-((6-ethoxy-3-pyridazinyl)methyl)-N-ethyl-7-fluoro-1,3-dihydrofuro[3,4-c]quinoline-8-carboxamide]
36400 nM	5350 nM	CCN(C(=O)c1ccc2nc(N)c3c(c2c1)COC3)[C@H](c1ccc(C(F)(F)F)cn1)C1CC1 [Example 748, 4-amino-N-((S)-cyclopropyl(5-(trifluoromethyl)-2-pyridinyl)methyl)-N-ethyl-1,3-dihydrofuro[3,4-c]quinoline-8-carboxamide]
3340 nM	177 nM	CCOc1ccc(CN(C(=O)c2cc3c4c(c(N)nc3cn2)COC4)[C@H](C)c2ncccn2)nn1 [Example 749, 4-amino-N-((6-ethoxy-3-pyridazinyl)methyl)-N-((1R)-1-(2-pyrimidinyl)ethyl)-1,3-dihydrofuro[3,4-c][1,7]naphthyridine-8-carboxamide]
767 nM	23 nM	Cn1cc(N(Cc2ccc(C(F)(F)F)nn2)C(=O)c2cc3c4c(c(N)nc3cc2F)COC4)cn1 [Example 750, 4-amino-7-fluoro-N-(1-methyl-1H-pyrazol-4-yl)-N-((6-(trifluoromethyl)-3-pyridazinyl)methyl)-1,3-dihydrofuro[3,4-c]quinoline-8-carboxamide]
337 nM	17 nM	Cn1cc(N(Cc2ccc(C(F)(F)F)nn2)C(=O)c2cc3c4c(c(N)nc3cc2Cl)COC4)cn1 [Example 751, 4-amino-7-chloro-N-(1-methyl-1H-pyrazol-4-yl)-N-((6-(trifluoromethyl)-3-pyridazinyl)methyl)-1,3-dihydrofuro[3,4-c]quinoline-8-carboxamide]
771 nM	33 nM	CCOc1ccc(CN(CC2CC2)C(=O)c2cc3c4c(c(N)nc3cc2F)COC4)nn1 [Example 752, 4-amino-N-(cyclopropylmethyl)-N-((6-ethoxy-3-pyridazinyl)methyl)-7-fluoro-1,3-dihydrofuro[3,4-c]quinoline-8-carboxamide]
3890 nM	124 nM	CCOc1ccc(CN(CC2CC2)C(=O)c2cc3c4c(c(N)nc3cn2)COC4)nn1 [Example 753, 4-amino-N-(cyclopropylmethyl)-N-((6-ethoxy-3-pyridazinyl)methyl)-1,3-dihydrofuro[3,4-c][1,7]naphthyridine-8-carboxamide]
370 nM	24 nM	CC(C)N(Cc1ccc(C(F)(F)F)cn1)C(=O)c1ccc2nc(N)c3ccncc3c2c1 [Example 754, 5-amino-N-(2-propanyl)-N-((5-(trifluoromethyl)-2-pyridinyl)methyl)benzo[c][2,6]naphthyridine-9-carboxamide]
6420 nM	892 nM	CC(C)N(Cc1ccc(C(F)(F)F)cn1)C(=O)c1ccc2nc(N)c3ncncc3c2c1 [Example 755, 5-amino-N-(2-propanyl)-N-((5-(trifluoromethyl)-2-pyridinyl)methyl)pyrimido[4,5-c]quinoline-9-carboxamide]
744 nM	49 nM	CC(C)N(Cc1ccc(C(F)(F)F)cn1)C(=O)c1cc2c(cn1)nc(N)c1ccncc12 [Example 756, 5-amino-N-(2-propanyl)-N-((5-(trifluoromethyl)-2-pyridinyl)methyl)pyrido[4,3-c][1,7]naphthyridine-9-carboxamide]
1320 nM	26 nM	Cn1cc(N(Cc2ccc(C(F)(F)F)cn2)C(=O)c2ccc3nc(N)c4cnn(C)c4c3c2)cn1 [Example 757, 4-amino-1-methyl-N-(1-methyl-1H-pyrazol-4-yl)-N-((5-(trifluoromethyl)-2-pyridinyl)methyl)-1H-pyrazolo[4,3-c]quinoline-8-carboxamide]
658 nM	37 nM	CCOc1ccc(CN(C(=O)c2ccc3nc(N)c4c(cnn4C)c3c2)[C@H](C)c2ncccn2)nn1 [Example 758, 4-amino-N-((6-ethoxy-3-pyridazinyl)methyl)-3-methyl-N-((1R)-1-(2-pyrimidinyl)ethyl)-3H-pyrazolo[3,4-c]quinoline-8-carboxamide]
11800 nM	6730 nM	CCN(C(=O)c1ccc2nc(N)c3c(c2c1)COC3)C(C)(C)c1ccc(C(F)(F)F)cc1 [Example 759, 4-amino-N-ethyl-N-(2-(4-(trifluoromethyl)phenyl)-2-propanyl)-1,3-dihydrofuro[3,4-c]quinoline-8-carboxamide]
6100 nM	743 nM	CC(C)N(Cc1ccc(C(F)(F)F)cn1)C(=O)c1cc2c(cn1)nc(N)c1ncncc12 [Example 760, 5-amino-N-(2-propanyl)-N-((5-(trifluoromethyl)-2-pyridinyl)methyl)pyrimido[4,5-c][1,7]naphthyridine-9-carboxamide]
13600 nM	305 nM	CC[C@H](c1ccc(C(F)(F)F)cn1)N(CC)C(=O)c1cc2c3c(c(N)nc2cn1)COC3 [Example 761, 4-amino-N-ethyl-N-((1R)-1-(5-(trifluoromethyl)-2-pyridinyl)propyl)-1,3-dihydrofuro[3,4-c][1,7]naphthyridine-8-carboxamide]
621 nM	26 nM	CCN(C(=O)c1cc2c3c(c(N)nc2cc1F)COC3)[C@H](C)c1ccc(C(F)(F)F)cn1 [Example 762, 4-amino-N-ethyl-7-fluoro-N-((1R)-1-(5-(trifluoromethyl)-2-pyridinyl)ethyl)-1,3-dihydrofuro[3,4-c]quinoline-8-carboxamide]
4810 nM	113 nM	CCN(C(=O)c1cc2c3c(c(N)nc2cn1)COC3)[C@H](C)c1ccc(C(F)(F)F)nn1 [Example 763, 4-amino-N-ethyl-N-((1R)-1-(6-(trifluoromethyl)-3-pyridazinyl)ethyl)-1,3-dihydrofuro[3,4-c][1,7]naphthyridine-8-carboxamide]
1980 nM	49 nM	CCOc1ccc(CN(CC2CC2)C(=O)c2cc3c(cc2F)nc(N)c2c3cnn2C)nn1 [Example 765, 4-amino-N-(cyclopropylmethyl)-N-((6-ethoxy-3-pyridazinyl)methyl)-7-fluoro-3-methyl-3H-pyrazolo[3,4-c]quinoline-8-carboxamide]
1910 nM	61 nM	CCOc1ccc(CN(CC2CC2)C(=O)c2ccc3nc(N)c4c(c3c2)CO[C@@H]4C)nn1 [Example 766, (3R)-4-amino-N-(cyclopropylmethyl)-N-((6-ethoxy-3-pyridazinyl)methyl)-3-methyl-1,3-dihydrofuro[3,4-c]quinoline-8-carboxamide]
